# Measured values: publication PMC5385157 (Neuropharmacology, 2016)
# “And” between values parts separate entries of the source, which are not always exact repeats. Identical values can stand only once. Like-named read-outs stand apart in the source and are kept apart here.
# Experiments:
# [1] = biological target: T1, HA-α2AAR (Mus musculus, UniProt Q01338); conditions: 1 µM, 30 min
# T1 sequence (Q01338 1-465): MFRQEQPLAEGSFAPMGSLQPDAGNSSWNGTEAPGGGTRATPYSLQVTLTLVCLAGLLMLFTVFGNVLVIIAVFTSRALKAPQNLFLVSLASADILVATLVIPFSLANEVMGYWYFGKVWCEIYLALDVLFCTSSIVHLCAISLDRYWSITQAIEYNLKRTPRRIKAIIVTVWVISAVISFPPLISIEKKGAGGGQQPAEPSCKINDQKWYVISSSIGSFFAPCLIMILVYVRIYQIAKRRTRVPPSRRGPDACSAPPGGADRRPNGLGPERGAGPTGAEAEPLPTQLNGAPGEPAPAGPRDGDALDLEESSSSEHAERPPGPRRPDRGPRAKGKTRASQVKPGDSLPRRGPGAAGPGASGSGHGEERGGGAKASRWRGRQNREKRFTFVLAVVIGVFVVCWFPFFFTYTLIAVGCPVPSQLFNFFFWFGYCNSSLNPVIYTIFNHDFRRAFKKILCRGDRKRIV
# [2] = biological target: human α2AAR; conditions: ref NIMH Psychoactive Drug Screening Program (PDSP) Ki Database, cited from earlier work
# [3] = biological target: T1, HA-α2AAR; conditions: 1 µM
# [4] = clinical blood plasma level; ref Baldessarini and Tarazi (2006); cited from earlier work
# [5] = biological target: α2AAR/Arr3 interaction (Mus musculus, UniProt Q01338); conditions: 1 µM, live HEK 293 cells
# α2AAR/Arr3 interaction, sequence (P32121 whole entry partner, one chain of several): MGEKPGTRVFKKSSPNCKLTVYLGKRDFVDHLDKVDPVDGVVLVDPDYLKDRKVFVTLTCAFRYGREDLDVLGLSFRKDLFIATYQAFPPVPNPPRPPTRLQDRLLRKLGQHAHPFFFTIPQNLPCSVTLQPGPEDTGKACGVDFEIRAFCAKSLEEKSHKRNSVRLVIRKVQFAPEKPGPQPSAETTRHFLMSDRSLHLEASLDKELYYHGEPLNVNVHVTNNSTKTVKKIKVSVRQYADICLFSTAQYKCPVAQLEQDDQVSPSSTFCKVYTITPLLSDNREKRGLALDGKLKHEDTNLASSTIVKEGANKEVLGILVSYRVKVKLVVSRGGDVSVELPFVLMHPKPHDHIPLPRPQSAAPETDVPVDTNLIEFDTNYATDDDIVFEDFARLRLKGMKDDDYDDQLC
# [6] = test system: α2AAR-mediated activation of the ERK1/2 MAP kinase pathway; experiment: Western blot for phospho-ERK1/2 in WT MEF cells; format: cell-based, murine; conditions: 1 µM
# [7] = biological target: T2, α2AAR (Mus musculus, UniProt Q01338); experiment: cAMP assay; format: cell-based, murine; conditions: ligand 10 µM, 10 µM forskolin, 20 min
# T2 sequence (Q01338 1-465): T1 sequence (Q01338 1-465)
smiles,measurement,setting,value
"CN(C)CCCN1c2ccccc2Sc2ccc(Cl)cc21 [Chlorpromazine, chlorpromazine]",α2AAR endocytosis (intracellular punctae),[1],robust α2AAR endocytosis
same,Ki,"[2]; read-out: Reported values at human α2AAR, Avg.",251 nM
same,Ki,"[2]; read-out: Reported values at human α2AAR, Range",78 to 558 nM
same,receptor loss from the cell surface,[3]; WT MEF cells,~30%
same,"α2AAR endocytic response in arrestin-null (Arr2,3−/−) MEF cells","[3]; 5, 10, 30 min",lost
same,Therapeutic range,[4],90 to 2350 nM
same,α2AAR/Arr3 interaction (FLIM-FRET efficiency),[5],robust α2AAR/Arr3 interaction
"CN1CCN(C2=Nc3cc(Cl)ccc3Nc3ccccc32)CC1 [Clozapine, clozapine]",ERK1/2 activation (pERK1/2),[6],unable to detect any ERK1/2 activation
"OCCN1CCN(CCCN2c3ccccc3Sc3ccc(C(F)(F)F)cc32)CC1 [Fluphenazine, fluphenazine]",Therapeutic range,[4],20–100 ng/ml and 50–230 nM
"NC[C@H](O)c1ccc(O)c(O)c1 [NE, norepinephrine]",Gαi-mediated inhibition of cAMP production,[7],~50%
